Values of other authors as cited in patent US20230310464A1, “USE OF C[…] THE TREATMENT OF SEIZURES ASSOCIATED WITH RARE […] SYNDROMES RELATED TO BRAIN INJURY” (GW Research Limited, priority 2020, published 2023).

Test system: new-born piglets with HIE
Conditions: Alvarez et al. (2008); cited from earlier work

Structure (SMILES): C=C(C)[C@@H]1CCC(C)=C[C@H]1c1c(O)cc(CCCCC)cc1O [CBD, cannabidiol]
- effect on seizures in piglets (in words): A reduction in seizures was reported
- proportion of CBD-treated piglets that still maintained significant seizures: half
